Data on five molecules can be found in patent publication US11857550B2, “Benzathine analogs” (University of Pittsburgh—Of the Commonwealth System of …, priority 2012, dated 2024).

Series [1] relates to U937 monocyte. Nature of the series: U937 monocyte Trypan blue cell death (LD50). The settings on record: U937 monocytes, 16 h. The class given is cell-based, human. As for the experimental part:
(§1) FIGS. 20A-20J is a table depicting benzathine compounds, and assay results. PBMC cells (0.6 ml at 1.5*10^6/ml) were treated with 2 ug/ml LPS for 16 hrs along with each compound at different concentrations. IL1β and TNFα cytokine release were monitored by ELISA to calculate the IC50. U937 monocyte (0.6 ml at 1.5*10^6/ml) were treated with each compound at different concentrations for 16 h. Cells were then stained with Trypan blue to differentiate dead cells, and calculate the LD50. Therapeutic index (TI)=LD50/IC50. Compounds marked in red are high value targets (low IC50, high LD50) and require further testing in vivo.
(§2) Briefly, compounds were added to human PBMC cells at different concentrations that were exposed to […] and cytokine secretion was monitored by ELISA to determine the IC50. Compounds were also added to U937 monocytes at different concentrations, and cells were stained with trypan blue to determine the LD50. […] Several functional studies were undertaken to assess anti-inflammatory effects focusing on BC-1215.

Series [2] relates to human PBMC cells. Nature of the series: LPS-induced IL1β and TNFα cytokine release from PBMC cells (ELISA). In kind it is cell-based. The settings on record: LPS-exposed human PBMC. Here is the method: as §1, §2
Series [3] has as its system U937 tumor implants. Nature of the series: U937 tumor xenograft in nude mice. In kind it is in vivo. The settings on record: 30 ug/ml in the drinking water. As for the experimental part:
FIGS. 28A-281. […] A-E. Effect of BC-1258 and other compounds on growth of U937 tumor implants in nude mice, n=4 mice/group with drug concentration at 30 ug/ml in the drinking water. […] B. Tumor volume measurements over time (n=4 mice/group, *P<0.05 versus con). D. Tumor tissue from C were weighted and graphed (n=4 mice/group, *P<0.05 versus con). E. Tumors from three controls and three drug treated U937 implants in mice were collected at the end-point, and assayed for AuroraB, CaM and FBXL2 proteins by immunoblotting. F-I. Serum of each mice were collected at the end point and processed for creatinine, LDH, ALT and creatine kinase activity.

Series [4] concerns MLE cells. Kind of series: BrdU/7-AAD FACS cell cycle and apoptosis analysis. The class given is cell-based, murine. Here is the method: FIGS. 27A-27G. […] A. PBMCs from 5 controls, AML, and ALL subjects were cultured in RPMI medium for 18 h. Cells were then collected, lysed, and assayed for protein immunoblotting. B-D. Human leukemia cells (U937, K562 and THP1 cells) were treated with BC-1258 at different concentrations for 16 h. Cells were collected and assayed for Aurora B, cyclin D2, cyclin D3 and FBXL2 immunoblotting. E-F. MLE cells were treated with BC-1258 at different concentrations for 16 h, cells were processed by BrdU uptake and 7-AAD staining followed by FACS cell cycle analysis (E), 2N, 4N, and 8N DNA histograms were quantitated and graphed in (F). G. Quantification of FACS analysis showing levels of apoptotic MLE cells after BC-1258 treatment at each time point.

Series [5] concerns C57BL6 mice. Kind of series: Pseudomonas aeruginosa PA103 pneumonia model. The class given is in vivo. The settings on record: i.p., PA103 2.5*10^4 cfu/mouse i.t., 18 h.
The subject of series [6] is C57BL6 mice. Nature of the series: DSS induced (acute) colitis. In kind it is in vivo. The settings on record: 150 μg daily i.p. or 30 μg/ml drinking water, 3.5% DSS. As for the experimental part:
FIGS. 17A-17D. BC-1215 reduces DSS induced colonic inflammation. FIGS. 17A-FIG. 17C. C57BL6 mice were fed with water containing 3.5% dextran sulfate sodium (DSS) for up to five days. Mice were treated with either vehicle or 100 ug of BC-1215 daily (via IP injection). Mice were then euthanized; the length of the colon was measured and graphed in (FIG. 17A). Colonic tissues were also analyzed for IL1β (FIG. 17B) and TNFα (FIG. 17C) by ELISA. (n=4 mice/group, *p<0.05 versus DSS) FIG. 17D, H&E staining was performed on colonic samples. (n=4 mice/group, *p<0.05 versus DSS)
FIGS. 24A-24E. […] A-D. C57BL6 mice were fed with water ad lib containing 3.5% dextran sulfate sodium (DSS) for up to five days. Mice were treated with either vehicle (control [CON]) or BC-1261 (150 μg) daily (via an i.p. injection), or BC-1261 were administered into drinking water at 30 μg/ml (po). Mice were then euthanized and the length of the colon was measured and graphed in (A-B). Colonic tissues were also analyzed for TNFα (C) and IL6(D). E. H&E staining was performed on colonic sections. The data represent n=4 mice/group, *P<0.05 versus DSS and **P<0.05 versus CON.
BC-1215 ameliorates DSS induced colitis. BC-1215 was also tested in a mouse colitis model to confirm its anti-inflammatory activity. Briefly, C57BL6 mice were fed with water containing 3.5% dextran sulfate sodium (DSS) for up to five days. Mice were treated with either vehicle or 200 ug of BC-1215 daily (via IP injection). Mice were then euthanized; the length of colons was measured. […] Colonic tissue cytokine levels were analyzed. […] Thus, the FBXO3 inhibitor BC-1215 suppresses inflammation in chemical induced colitis model in mice.

The subject of series [7] is mice. Kind of series: Cigarette smoke induced chronic lung inflammation. The class given is in vivo. Conditions: 100 ug i.p. after 5 weeks smoke, 18 h. As for the experimental part: FIGS. 22A-22C. […] Mice were exposed to cigarette smoke for 5 weeks before one does of i.p. injection of BC1261 (100 ug), 18 h later, mice were euthanized and lungs were lavaged with saline, harvested, and then homogenized. Lavage protein, cell counts and cytokine secretion were measured in (A-C). The data represent n=3 mice/group, *P<0.05 versus con.

For series [8], the system named is C57BL6 mice. Nature of the series: DSS induced chronic colonic inflammation. The class given is in vivo. Conditions: 30 μg/ml drinking water from day 7, 2% DSS cycles. As for the experimental part: FIGS. 25A-25J. […] A. C57BL6 mice were fed with water ad lib containing 2% dextran sulfate sodium (DSS) for six days, then switch to water for up to three cycles. BC-1261 was administered into drinking water at 30 μg/ml, starting at day 7. Mice were euthanized at the end of the experiment and the length of the colon was measured and graphed in (B-C). Disease index was measured and graphed in (D). Serum cytokine levels were measured in (E-F). Colonic tissues cytokines and MPO activity were also analyzed (GJ). The data represent n=7 mice/group, *P<0.05 versus CON.

The test system of series [9] is C57BL6 mice. Nature of the series: TPA induced ear edema. In kind it is in vivo. The settings on record: various doses to ears 30 min after TPA, 18 h. As for the experimental part:
FIGS. 15A-15C. […] FIG. 15A-15C. C57BL6 mice were deeply anesthetized with ketamine (80-100 mg/kg i.p.) and xylazine (10 mg/kg i.p.). 20 μl of ethanol solution of BC-1215 was applied to ears at 8, 40, 200 ug/ear 30 min after TPA administration (2 μg/ear). Comparisons included equal volumes of ethanol (vehicle control). 18 h after TPA administration, mice were euthanized; the thickness of the ear was measured using a micrometer (FIG. 15B). Ear punch biopsies were also taken immediately, weighed and graphed (FIG. 15C).
FIGS. 23A-23D. […] Different dose of BC-1261 was applied to ears of mice at various doses 30 min after TPA administration (2 μg/ear). A. Gross comparisons were made with equal volumes of ethanol as a vehicle control (CON). 18 h after TPA administration, mice were euthanized and the thickness of the ear was measured using a micrometer (B). Autopsy sample were also taken to measure MPO activity (C) and calculate ear edema (D). The data represent n=6 mice/group, *P<0.05 versus TPA.
Topical application of BC-1215 as an anti-inflammatory agent was tested in a model of 12-O-tetradecanoylphorbol-13-acetate (TPA) induced ear edema (Bralley et. al., J Inflamm (LOnd), 2008. 5:p.1). Briefly, 20 μl of an ethanol solution of BC-1215 was applied to ears of mice at 8, 40, and 200 ug/ear for 30 min after TPA administration (2 μg/ear). Comparisons included equal volumes of ethanol (vehicle control). 18 h after TPA administration, mice were euthanized; the thickness of the ear was measured using a micrometer. Ear punch biopsies were also taken immediately, weighed, and graphed.

In the case of `c1cn(-c2ccc(CNCCNCc3ccc(-n4ccnc4)cc3)cc2)cn1` [BC-1207], the LD50 result in series [1] is recorded as “low”. Besides, the “IC50 (cytokine secretion)” value in series [2] is given as “high”.
Consider `Fc1ccc(CNCCNCc2ccc(-c3ccccn3)cc2)cc1` [BC-1241], for which the LD50 entry in series [1] was “low”. For the same molecule, the “IC50 (cytokine secretion)” value in [2] is “high”.
The corresponding values for `c1cnn(-c2ccc(CNCCNCc3ccc(-n4cccn4)cc3)cc2)c1` [BC-1250] are “low” and “high”.
`c1csc(-c2ccc(CNCCNCc3ccc(-c4nccs4)cc3)cc2)n1` [BC-1258]: the tumor growth result in [3] is “suppresses tumor growth in xenograft”. For the same molecule, the apoptosis result in series [4] is given as “apoptosis”. Also, the cell cycle arrest entry in [4] (different concentrations, 16 h) was “Induces G2/M arrest”.
With `c1cnc(-c2ccc(CNCCNCc3ccc(-c4ncccn4)cc3)cc2)nc1` [BC-1261], the “P. aeruginosa induced lung inflammation” value in series [5] is recorded as “reduces P. aeruginosa induced lung inflammation”. For the same molecule, the “DSS induced acute colonic inflammation” value in series [6] is “reduces DSS induced acute colonic inflammation”. For the same molecule, the LD50 entry in [1] is recorded as “low”. For the same molecule, the “IC50 (cytokine secretion)” value in series [2] was “high”. Further, the “smoke induced chronic lung inflammation” value in [7] was “reduces smoke induced chronic lung inflammation”. The “DSS induced chronic colonic inflammation” value in series [8] is on record as “reduces DSS induced chronic colonic inflammation”. Further, the “TPA induced ear edema” value in [9] is on record as “reduces TPA induced ear edema”.
